The values that follow come from ChEMBL document CHEMBL1955720 (Bioorg Med Chem, 2012).

In data set [1] the test system is RAW264.7. Description: Antiinflammatory activity in mouse RAW264.7 cells assessed as inhibition of LPS-induced NO production at 40 uM preincubated for 30 mins measured 24 hrs post LPS challenge by Griess method. It counts as functional.
Data set [2] concerns HEK293. The data set can be described thus: Inhibition of TNF-alpha activated NF-kappaB expressed in HEK293 cells at 50 uM by luciferase reporter gene assay. It counts as cell-based.
Data set [3] deals with T1, Aromatase (Homo sapiens, UniProt P11511).
T1 sequence (P11511 whole entry): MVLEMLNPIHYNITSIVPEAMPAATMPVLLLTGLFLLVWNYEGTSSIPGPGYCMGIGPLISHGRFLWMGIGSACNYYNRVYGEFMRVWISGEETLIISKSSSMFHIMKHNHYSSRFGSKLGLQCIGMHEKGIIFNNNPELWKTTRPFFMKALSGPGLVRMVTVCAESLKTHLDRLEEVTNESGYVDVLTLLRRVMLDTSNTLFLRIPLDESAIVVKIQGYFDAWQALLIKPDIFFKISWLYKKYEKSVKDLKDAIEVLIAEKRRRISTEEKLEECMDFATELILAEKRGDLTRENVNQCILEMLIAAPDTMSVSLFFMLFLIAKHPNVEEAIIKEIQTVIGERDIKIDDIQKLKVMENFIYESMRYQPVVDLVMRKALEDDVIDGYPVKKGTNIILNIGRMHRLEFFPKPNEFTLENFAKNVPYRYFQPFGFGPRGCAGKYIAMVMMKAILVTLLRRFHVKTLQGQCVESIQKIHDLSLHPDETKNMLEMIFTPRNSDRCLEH

The target in data set [4] is NAD(P)H dehydrogenase [quinone] 1 (Mus musculus) (UniProt Q64669). The data set can be described thus: Induction of QR1 in mouse Hepa-1c1c7 cells assessed as induction ratio at 50 uM by MTT assay. It counts as cell-based.
Data set [5] can be described thus: Inhibition of TNF-alpha activated NF-kappaB expressed in HEK293 cells by luciferase reporter gene assay. It is filed as cell-based.
In data set [6] the target is T1, Aromatase. This is another data set of the same source.
The target of data set [7] is NAD(P)H dehydrogenase [quinone] 1 (Mus musculus) (UniProt Q64669). Description: Induction of QR1 in mouse Hepa-1c1c7 cells assessed as concentration required to double QR1 induction by MTT assay. It is filed as cell-based.
Data set [8] deals with T1, Aromatase. The data set can be described thus: Inhibition of human aromatase using dibenzylfluorescein substrate at 20 uM after 30 mins by fluorescence assay. The following applies: 0.5 h.
Data set [9] concerns RAW264.7. The data set can be described thus: Antiinflammatory activity in mouse RAW264.7 cells assessed as inhibition of LPS-induced NO production preincubated for 30 mins measured 24 hrs post LPS challenge by Griess method. It counts as functional, cell-based.
Data set [10] deals with T2, Nitric oxide synthase, inducible (Mus musculus, UniProt P29477).
T2 sequence (P29477 whole entry): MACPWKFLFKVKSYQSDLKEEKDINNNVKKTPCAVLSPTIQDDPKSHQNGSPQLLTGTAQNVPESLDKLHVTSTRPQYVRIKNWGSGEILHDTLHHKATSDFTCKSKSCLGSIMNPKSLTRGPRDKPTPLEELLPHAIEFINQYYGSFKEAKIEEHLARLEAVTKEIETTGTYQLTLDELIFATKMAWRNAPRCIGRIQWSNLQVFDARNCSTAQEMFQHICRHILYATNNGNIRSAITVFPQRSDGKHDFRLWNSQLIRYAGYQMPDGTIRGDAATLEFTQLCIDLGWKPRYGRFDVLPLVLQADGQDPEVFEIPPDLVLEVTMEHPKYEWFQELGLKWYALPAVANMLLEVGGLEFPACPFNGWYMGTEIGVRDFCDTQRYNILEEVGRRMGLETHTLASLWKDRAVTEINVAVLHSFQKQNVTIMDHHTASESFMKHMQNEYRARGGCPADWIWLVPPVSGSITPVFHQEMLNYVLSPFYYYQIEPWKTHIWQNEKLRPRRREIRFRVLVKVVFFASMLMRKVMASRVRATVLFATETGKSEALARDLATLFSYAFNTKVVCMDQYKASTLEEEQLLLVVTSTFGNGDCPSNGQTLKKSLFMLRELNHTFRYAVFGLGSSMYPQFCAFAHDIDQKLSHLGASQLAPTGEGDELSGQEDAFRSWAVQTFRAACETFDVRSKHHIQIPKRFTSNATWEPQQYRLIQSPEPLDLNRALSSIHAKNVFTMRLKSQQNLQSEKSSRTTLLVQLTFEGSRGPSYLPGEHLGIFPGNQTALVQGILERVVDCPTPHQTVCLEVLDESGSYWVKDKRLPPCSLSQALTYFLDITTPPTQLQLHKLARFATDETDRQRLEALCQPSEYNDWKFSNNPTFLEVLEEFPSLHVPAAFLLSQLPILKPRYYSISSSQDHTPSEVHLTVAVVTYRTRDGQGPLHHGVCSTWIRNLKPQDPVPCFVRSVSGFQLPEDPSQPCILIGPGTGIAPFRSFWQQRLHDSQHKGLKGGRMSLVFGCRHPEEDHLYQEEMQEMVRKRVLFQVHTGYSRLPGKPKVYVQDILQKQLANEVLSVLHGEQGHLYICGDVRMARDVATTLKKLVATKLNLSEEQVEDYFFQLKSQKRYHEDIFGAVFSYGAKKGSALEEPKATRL
Description: Inhibition of iNOS in LPS-stimulated mouse RAW264.7 cells after 18 hrs

The test system of data set [11] is MCF7. Description: cells. The following applies: Homo sapiens.
Description: Cytotoxicity against human MCF7 cells by SRB assay

pIC50, pKi: −log10 of the molar value.

Sequence of NAD(P)H dehydrogenase [quinone] 1 (Mus musculus) (Q64669 whole entry): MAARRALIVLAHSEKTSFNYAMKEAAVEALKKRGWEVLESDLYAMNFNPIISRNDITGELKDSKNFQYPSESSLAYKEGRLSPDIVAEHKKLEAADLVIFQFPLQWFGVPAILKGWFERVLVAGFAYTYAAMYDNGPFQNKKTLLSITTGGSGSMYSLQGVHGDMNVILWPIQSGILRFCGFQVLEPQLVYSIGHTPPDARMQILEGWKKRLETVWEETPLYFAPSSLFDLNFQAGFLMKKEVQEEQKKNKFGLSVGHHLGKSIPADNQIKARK

With `Fc1ccc(-c2nc(-c3cccnc3)cs2)cc1`, the inhibition at 40 µM in [1] was found to be 54.6%. Moreover, in data set [2], the inhibition worked out at 28.8%.

Turning to `c1ccc(-c2nc(-c3cccnc3)cs2)cc1`, in data set [3], the pKi was 7.20. In addition, the Ratio in [4] turned out to be 1.45. The inhibition at 40 µM in data set [1] was determined as 60.1%. The pIC50 in [5] was 4.75; in data set [6], 6.05. In addition, the inhibition in [2] was determined as 50.3%.

Take `COc1cccc(-c2nc(-c3cccnc3)ns2)c1`: the CD in data set [7] came out at 0.08 µM. Further, the inhibition in [2] amounted to 22.4%.

For `Brc1ccc(-c2csc(-c3cccnc3)n2)cn1`, the “inhibition (INH)” value in [8] is reported as “Active”. In [3], this compound showed a pKi of 5.83. For the same compound, the Ratio in [4] came out at 5.1. Further, the inhibition at 40 µM in data set [1] was 22.7%. In addition, in [7], the CD stood at 20.1 µM. In addition, the pIC50 in data set [6] was 5.13. In [2], the inhibition is 16.4%.

The compound `Brc1cccc(-c2nc(-c3cccnc3)ns2)c1` gave a pKi in data set [3] of 5.94. Besides, the Ratio in [4] turned out to be 9.2. Moreover, in data set [7], the CD was found to be 0.06 µM. The compound further had a pIC50 in data set [6] of 5.17. Moreover, the inhibition in [2] stood at 12.9%.

The compound `c1cncc(-c2csc(-c3ccncc3)n2)c1` had a pIC50 in [5] of 5.59. Further, the inhibition in data set [2] stood at 68.8%.

As for `CCOc1ccc(-c2csc(-c3ccncc3)n2)cn1`, the “inhibition (INH)” value in data set [8] is recorded as “Active”. In addition, in data set [3], the pKi is 7.00. In data set [4], the Ratio was determined as 1.1. Moreover, the inhibition at 40 µM in [1] stood at 28.1%. Also, the pIC50 in [6] is 5.87. The inhibition in data set [2] is -2.4%.

Turning to `Clc1ccc(-c2nc(-c3cccnc3)cs2)cc1`, the inhibition at 40 µM in data set [1] worked out at 76.3%. Moreover, the CD in data set [7] is 32 µM. The compound further had a pIC50 in [5] of 4.99. In addition, the inhibition in data set [2] stood at 54%.

With `COc1cc(-c2nc(-c3cccnc3)cs2)ccn1`, the negative-log Ki (pKi) in [3] was 9.19. In addition, in data set [4], the Ratio was determined as 0.7. Besides, the inhibition at 40 µM in data set [1] came to 54.7%. In addition, the pIC50 in data set [6] is 7.64; in data set [9], 4.32. Also, in data set [2], the inhibition was -4.9%.

For the compound `COc1ccc(-c2csc(-c3cccnc3)n2)cn1`, the inhibition at 40 µM in data set [1] was 16.3%.

As to `Oc1ccc(/C=C/c2cc(O)cc(O)c2)cc1` [RESVERATROL], the negative logarithm of the IC50 (pIC50) is 4.63 in [10] and 4.06 in data set [11].

Turning to `COc1ccc(-c2csc(-c3ccncc3)n2)cn1`, the inhibition at 40 µM in [1] amounted to 32.1%. Besides, the inhibition in [2] stood at 6%.

For `COc1ccc(-c2nc(-c3cccnc3)cs2)cc1`, in data set [3], the pKi was 4.82. Moreover, the Ratio in [4] came to 1.1. Besides, the inhibition at 40 µM in [1] is 48.3%. This compound also had a negative-log IC50 (pIC50) in data set [6] of 4.74. Besides, the inhibition in data set [2] stood at 59.9%.

Turning to `Brc1ccc(-c2csc(-c3ccncc3)n2)cn1`, in data set [8], the “inhibition (INH)” value was “Active”. The compound also gave a pKi in data set [3] of 6.55. Besides, in data set [4], the Ratio turned out to be 1.5. Besides, the inhibition at 40 µM in data set [1] is 8.6%. In data set [6], this compound had a pIC50 of 5.57.

In turn, `Brc1ccc(-c2nc(-c3cccnc3)cs2)cc1` showed a pKi in data set [3] of 5.76. In addition, in [4], the Ratio turned out to be 4.27. The inhibition at 40 µM in data set [1] was 72.5%. Also, in data set [7], the CD turned out to be 32.8 µM. Also, the figures for the pIC50 in data set [5] and in data set [6] were 4.70 and 5.10, respectively. The inhibition in [2] stood at 46.8%.

For `Clc1cc(-c2nc(-c3cccnc3)cs2)ccn1`, in data set [1], the inhibition at 40 µM was -5.2%.

Compound `Oc1ccc(-c2nc(-c3cccnc3)cs2)cc1` showed a pKi in data set [3] of 5.59. For the same compound, the Ratio in data set [4] turned out to be 0.87. Also, the inhibition at 40 µM in data set [1] worked out at 35.7%. The pIC50 in data set [6] is 4.95. Further, the inhibition in data set [2] was 52.9%.
